± gives the uncertainty stated by the source.
Assay: xn = mol fraction of the nth substance listed
Settings: 298.15 K, 101 kPa

For `CC[NH3+].O=[N+]([O-])[O-]` + C[N+](=O)[O-], the electrical conductivity (x1 = 0.0084) was 0.0847 ± 0.0009 S/m, the viscosity (x1 = 0.0084) was 0.671 ± 0.027 mPa·s and the electrical conductivity (x2 = 0) was 2.27 ± 0.023 S/m. It also gave a viscosity (x2 = 0) of 37.5 ± 1.6 mPa·s, an electrical conductivity (x2 = 0.5996) of 2.42 ± 0.026 S/m and a viscosity (x2 = 0.5996) of 5.95 ± 0.25 mPa·s.

From the CheMixHub ionic liquid set
